Measured values from patent US12415785B2, “Compound modulators of sting” (CTXT PTY LTD, priority 2019, dated 2025).
Where two headings read alike, the source gives them in different places.

Legend:
[1] = target: human HAQ isoform of STING (THP-1 STING Lucia ISG cells) (Homo sapiens (Human), UniProt Q86WV6, G230A/H232R/R293Q/R71H); assay: THP-1 STING Lucia ISG reporter cell line assay; assay type: cell-based; conditions: 24 h incubation, QUANTI-Luc luminescence
Protocol: THP-1 STING Lucia ISG cells (InvivoGen #thpI-isg) were cultured in RPMI-1640 containing 2 mM L-glutamine, 25 mM HEPES, 100 μg/mL Normocin (InvivoGen) and 10% heat-inactivated FBS. Cells were seeded at a density of 7×10^5 cells/mL, maintained at 37° C./5% CO2, and passaged every 3-4 days. Selection pressure was maintained by the addition of 100 μg/mL Zeocin every second passage.
Assay conditions: cells were harvested and resuspended at a concentration of 5×10^5 cells/mL in fresh growth media. Of this cell preparation 20 μL per well was dispensed into 384 well cell culture plates (Greiner, #781098X) and incubated at 37° C./5% CO2 for 2 hours. Concentration Response Curves (commonly 11 doses) were prepared by 2.5 fold serial dilution starting from 10 mM compound stock solution in DMSO. Compound dilutions were transferred into the cell culture plates using a pintool (0.1 μL transfer), control wells were matched for DMSO. Positive control wells received ML RR—S2 CDA (Med Chem Express HY12885B) in 5 μL of media to a final concentration of 40 μM. All other wells received additional 5 μL of media only to equalise volume. The plates were incubated for 24 h at 37° C./5% CO2.
For the detection step, QUANTI-Luc (InvivoGen #rep-qlc1) was prepared according to manufacturer's instruction and 10 μL were added per well to the culture plates. Plates were shaken for ten seconds on an orbital shaker and left in the dark at room temperature for two minutes, before luminescence was read on a Perkin Elmer Envision plate reader.
Data analysis: Luminescence raw data was normalised % activity relative to the signal of the positive control wells and negative control wells which were not treated with compound. The following formula was used to calculate normalised % activity from raw signals: % activity=(sample−negative)/(positive−negative)
The THP-1 STING Lucia ISG cell EC50 provides an assessment of activity at the human HAQ isoform of STING. For assessing compound activity against the WT human STING isoform, an equivalent method was conducted where the cells used were THP-1-Dual KI-hSTING-R232 (InvivoGen #thpd-r232).

[2] = target: human STING (WT) (Homo sapiens (Human), UniProt Q86WV6, H232R); assay: Differential scanning fluorimetry (DSF), huSTING (WT); assay type: binding; conditions: for ΔTm at 100 µM: read-out: DSF huSTING (WT) ΔTm (° C.)
human STING (WT), sequence (Q86WV6 other isoform, or with tags, fused parts or gaps, stated change not applied): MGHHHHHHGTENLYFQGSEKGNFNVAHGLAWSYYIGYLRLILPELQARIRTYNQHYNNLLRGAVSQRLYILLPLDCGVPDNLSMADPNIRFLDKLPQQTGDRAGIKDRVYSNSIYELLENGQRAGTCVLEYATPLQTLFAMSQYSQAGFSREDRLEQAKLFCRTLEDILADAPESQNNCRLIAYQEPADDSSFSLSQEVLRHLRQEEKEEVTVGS
Protocol: Biophysical experiments were performed with three different recombinant human STING protein variants designated according to allelic nomenclature of Yi et al., (2013). […] These were ligated into a modified pET43a E. coli expression vector designed to encode N-terminal His tag followed by tobacco etch virus protease (TEV) cleavage site and a STING gene sequence. The resulting protein sequences for the three allelic variants are listed below: […] Cultures were then cooled to 16° C. and protein expression induced by the addition of isopropyl β-D-1-thiogalactopyranoside to a final concentration of 0.5 mM and the cultures shaken overnight for further 16 hours. Following expression, cell cultures were centrifuged at 5000×g for 20 min and cell pellet stored frozen at −70° C. Protein purification was initiated by thawing the cell pellet in Lysis buffer (25 mM Tris-HCl pH 8.0, 300 mM NaCl, 5 mM DTT, 2 mM MgCl2, 10 mM imidazole, 0.5 mg/ml lysozyme, benzonase endonuclease [EMD Millipore], 1 mM PMSF, complete protease inhibitor tablets EDTA-free [Roche]) using a ratio of 7 ml of buffer per 1 g of cells. Cells were further lysed by 3 passes through an ice cooled Avestin C5 cell crusher and then centrifuged at 48,000×g at 4° C. […] The IMAC column was then sequentially washed with IMAC Wash buffer 1 and IMAC Wash buffer 2 (25 mM Tris-HCl pH 8.0, 300 mM NaCl, 5 mM DTT, 20 mM Imidazole) and bound His-TEV-hSTING protein eluted with IMAC Elution buffer (25 mM Tris-HCl pH 8.0, 300 mM NaCl, 5 mM DTT, 250 mM Imidazole). […] Differential scanning fluorimetry (DSF) is a rapid screening method for identifying low-molecular-weight ligands that bind and, in doing so, stabilize (or sometimes destabilize) purified proteins (Niesen 2007). DSF monitors thermal unfolding of protein in the presence of a fluorescent dye and is typically performed using a real-time PCR instrument. The temperature at which a protein unfolds is measured by an increase in the fluorescence of a dye with affinity for hydrophobic parts of the protein that are gradually being exposed during unfolding. The fluorescence of the dye is quenched in aqueous environments, but when the dye associates with hydrophobic sites on unfolded protein, its fluorescence increases. The fluorescence intensity is plotted as a function of the temperature, generating a sigmoidal curve that can be described by a two-state transition. The inflection point of the transition curve (Tm) is calculated using simple equations such as that of Boltzmann. Thermal stability of STING protein (with and without bound ligand) was measured using previously described methodology (Seabrook & Newman, 2013), with samples tested in triplicate using 96-well PCR microplate (AB Gene, ABGAB-0600/W). […] Sealed plates were placed into Bio-Rad CFX96/C1000 thermocycler and FRET scanning mode (λ^excitation of 490 nm and reads at a λ^emission of 570 nm). Melting curves were recorded from 20° C. to 100° C. in 0.5° C. increments every 30 seconds with a read at each increment. Data were analysed using “Meltdown analysis” protocol described by Rosa (2015).

[3] = 2 μM protein, compound 100 μM, Tm with ligand minus Tm of protein alone (1% DMSO)

human HAQ isoform of STING (THP-1 STING Lucia ISG cells), sequence (Q86WV6 whole entry R71H/G230A/H232R/R293Q, canonical isoform): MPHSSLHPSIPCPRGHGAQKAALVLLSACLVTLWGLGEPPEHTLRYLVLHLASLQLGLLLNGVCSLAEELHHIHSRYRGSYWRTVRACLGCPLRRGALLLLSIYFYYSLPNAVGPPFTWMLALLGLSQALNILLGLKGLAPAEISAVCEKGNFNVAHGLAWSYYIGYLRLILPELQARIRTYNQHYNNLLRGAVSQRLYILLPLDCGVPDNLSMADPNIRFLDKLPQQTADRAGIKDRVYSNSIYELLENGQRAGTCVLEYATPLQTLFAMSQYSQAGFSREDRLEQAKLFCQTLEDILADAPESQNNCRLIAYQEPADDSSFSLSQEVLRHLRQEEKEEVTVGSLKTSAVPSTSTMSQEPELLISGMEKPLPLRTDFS

Structure (SMILES)	EC50 [1] [nM]	ΔTm at 100 µM [2, 3] [°C]	DSF huSTING (WT) ΔTm (° C.) [2, 3] [°C]	ΔTm at 100 µM [2] [°C]
COc1c(C(N)=O)ccc2c1nc(-c1c(Cl)cccc1C(=O)O)n2CCn1c(-c2c(Cl)cccc2C(=O)O)nc2c(OC)c(C(N)=O)ccc21 (racemic) [Example 22, 2,2′-(Ethane-1,2-diylbis(5-carbamoyl-4-methoxy-1H-benzo[d]imidazole-1,2-diyl))bis(3-chlorobenzoic acid)]	1530	17		
COc1c(C(N)=O)ccc2c1nc(-c1c(I)cccc1C(=O)O)n2CCn1c(-c2c(I)cccc2C(=O)O)nc2c(OC)c(C(N)=O)ccc21 (single isomer, unassigned) [Example 19.1, 2,2′-(Ethane-1,2-diylbis(5-carbamoyl-4-methoxy-1H-benzo[d]imidazole-1,2-diyl))bis(3-iodobenzoic acid)]	297		19.29	
COc1c(C(N)=O)ccc2c1nc(-c1c(Cl)cccc1-c1nn[nH]n1)n2CCn1c(-c2c(Cl)cccc2-c2nn[nH]n2)nc2c(OC)c(C(N)=O)ccc21 (single isomer, unassigned) [Example 23, 1,1′-(Ethane-1,2-diyl)bis(2-(2-chloro-6-(2H-tetrazol-5-yl)phenyl)-4-methoxy-1H-benzo[d]imidazole-5-carboxamide)]	2500	15		
NC(=O)c1ccc2c(c1)nc(-c1c(Br)cccc1C(=O)O)n2CCn1c(-c2c(Br)cccc2C(=O)O)nc2cc(C(N)=O)ccc21 (single isomer, unassigned) [Example 29.1, 2,2′-(Ethane-1,2-diylbis(5-carbamoyl-1H-benzo[d]imidazole-1,2-diyl))bis(3-bromobenzoic acid)]	18400		−0.07	
COc1c(C(N)=O)ccc2c1nc(-c1ccc(Cl)cc1C(=O)O)n2CCn1c(-c2ccc(Cl)cc2C(=O)O)nc2c(OC)c(C(N)=O)ccc21 [Example 1, 6,6′-(Ethane-1,2-diylbis(5-carbamoyl-4-methoxy-1H-benzo[d]imidazole-1,2-diyl))bis(3-chlorobenzoic acid)]	1070	5.07		
NC(=O)c1ccc2c(c1)nc(-c1ccccc1C(=O)O)n2CCn1c(-c2ccccc2C(=O)O)nc2cc(C(N)=O)ccc21 [Example 2, 2,2′-(Ethane-1,2-diylbis(5-carbamoyl-1H-benzo[d]imidazole-1,2-diyl))dibenzoic acid]	> 40000	-6.94		
NC(=O)c1ccc2c(c1)nc(-c1cc(Br)ccc1C(=O)O)n2CCn1c(-c2cc(Br)ccc2C(=O)O)nc2cc(C(N)=O)ccc21 [Example 3, 2,2′-(Ethane-1,2-diylbis(5-carbamoyl-1H-benzo[d]imidazole-1,2-diyl))bis(4-bromobenzoic acid)]	> 40000	-0.02		
COc1c(C(N)=O)ccc2c1nc(-c1ccccc1C(=O)O)n2CCn1c(-c2ccccc2C(=O)O)nc2c(OC)c(C(N)=O)ccc21 [Example 4, 2,2′-(Ethane-1,2-diylbis(5-carbamoyl-4-methoxy-1H-benzo[d]imidazole-1,2-diyl))dibenzoic acid]	15900	3.28		
NC(=O)c1ccc2c(c1)nc(-c1ccccc1-c1nn[nH]n1)n2CCn1c(-c2ccccc2-c2nnn[nH]2)nc2cc(C(N)=O)ccc21 [Example 5, 2-(2-(1H-Tetrazol-5-yl)phenyl)-1-(2-(2-(2-(2H-tetrazol-5-yl)phenyl)-5-carbamoyl-1H-benzo[d]imidazol-1-yl)ethyl)-1H-benzo[d]imidazole-5-carboxamide]	24800	1.33		
COc1c(C(N)=O)ccc2c1nc(-c1ccccc1-c1nn[nH]n1)n2CCn1c(-c2ccccc2-c2nn[nH]n2)nc2c(OC)c(C(N)=O)ccc21 [Example 6, 1,1′-(Ethane-1,2-diyl)bis(2-(2-(2H-tetrazol-5-yl)phenyl)-4-methoxy-1H-benzo[d]imidazole-5-carboxamide)]	902	0.94		
COc1c(C(N)=O)ccc2c1nc(-c1ccc(Cl)cc1-c1nn[nH]n1)n2CCn1c(-c2ccc(Cl)cc2-c2nn[nH]n2)nc2c(OC)c(C(N)=O)ccc21 [Example 9, 1,1′-(Ethane-1,2-diyl)bis(2-(4-chloro-2-(2H-tetrazol-5-yl)phenyl)-4-methoxy-1H-benzo[d]imidazole-5-carboxamide)]	777	5.06		
COc1c(C(N)=O)ccc2c1nc(-c1c(F)cccc1C(=O)O)n2CCn1c(-c2c(F)cccc2C(=O)O)nc2c(OC)c(C(N)=O)ccc21 [Example 10, 2,2′-(Ethane-1,2-diylbis(5-carbamoyl-4-methoxy-1H-benzo[d]imidazole-1,2-diyl))bis(3-fluorobenzoic acid)]	1590	9.63		
COc1c(C(N)=O)ccc2c1nc(-c1c(F)cc(Cl)cc1C(=O)O)n2CCn1c(-c2c(F)cc(Cl)cc2C(=O)O)nc2c(OC)c(C(N)=O)ccc21 [Example 11, 2,2′-(ethane-1,2-diylbis(5-carbamoyl-4-methoxy-1H-benzo[d]imidazole-1,2-diyl))bis(5-chloro-3-fluorobenzoic acid)]	830	10.6		
COc1c(C(N)=O)ccc2c1nc(-c1cc(F)c(F)cc1C(=O)O)n2CCn1c(-c2cc(F)c(F)cc2C(=O)O)nc2c(OC)c(C(N)=O)ccc21 [Example 15, 6,6′-(Ethane-1,2-diylbis(5-carbamoyl-4-methoxy-1H-benzo[d]imidazole-1,2-diyl))bis(3,4-difluorobenzoic acid)]	2560			-0.91
COc1c(C(N)=O)ccc2c1nc(-c1c(F)cc(F)cc1C(=O)O)n2CCn1c(-c2c(F)cc(F)cc2C(=O)O)nc2c(OC)c(C(N)=O)ccc21 [Example 16, 2,2′-(Ethane-1,2-diylbis(5-carbamoyl-4-methoxy-1H-benzo[d]imidazole-1,2-diyl))bis(3,5-difluorobenzoic acid)]	738	7.95		
COc1c(C(N)=O)ccc2c1nc(-c1ccc(Cl)cc1-c1n[nH]c(=O)o1)n2CCn1c(-c2ccc(Cl)cc2-c2n[nH]c(=O)o2)nc2c(OC)c(C(N)=O)ccc21 [Example 17, 1,1′-(Ethane-1,2-diyl)bis(2-(4-chloro-2-(5-oxo-4,5-dihydro-1,3,4-oxadiazol-2-yl)phenyl)-4-methoxy-1H-benzo[d]imidazole-5-carboxamide)]	290	3.05		
